Assay results as given in PMC12009420, “Dynamically chiral phosphonic acid-type metallo-β-lactamase inhibitors” (Communications Chemistry, 2025).
Read-outs that look alike come from different tables or passages of the source.

Assays:
[1] = target: T1, VIM-2 (Escherichia coli, UniProt Q5U7L7); settings: cited from earlier work
[2] = target: T2, NDM-1 (Klebsiella pneumoniae, UniProt C7C422); test: Enzymatic metallo-β-lactamase assay on purified NDM-1; format: biochemical; settings: for Ki: approximated from Dixon plots (1/v vs [I]) at one constant substrate concentration, ± SE, read-out: Estimated inhibition constant Ki NDM-1; for logIC50 NDM-1: log of IC50, ± SEM of logIC50; for IC50: purified enzyme 5 nM, imipenem 30 μM, pH 7.2, 25 °C
Experimental: (§1) A few inhibitors were tested up to 1600 μM to ensure nearly complete inhibition. Solutions of 100 μL consisting of buffer, purified enzyme (1 nM for GIM-1 and VIM-2, 5 nM for NDM-1), inhibitor and reporter substrate nitrocefin (15 μM for VIM-2, 2 μM for GIM-1) or imipenem (30 μM for NDM-1) were incubated in triplicates on a 96 well plate for 5 min at 25 °C. Buffer solution consisted of 50 mM HEPES pH 7.2, 50 μM ZnSO4 and 0.4 mg/ml bovine serum albumine. Inhibitors were dissolved in DMSO but diluted to assure <2% DMSO in measured assay. Absorbance was measured at 482 nm (nitrocefin) and 300 nm (imipenem) on a SpectraMax M4 spectrophotometer. The initial velocity at each inhibitor concentration was analyzed in GraphPad Prism v9.3.1 and fitted to dose-response curves by non-linear regression (log [inhibitor] vs response) used to calculate IC50 (Supplementary Tables S2–5).

[3] = target: T1, VIM-2; test: Enzymatic metallo-β-lactamase assay on purified VIM-2; format: biochemical; settings: for Ki: approximated from Dixon plots (1/v vs [I]) at one constant substrate concentration, ± SE, read-out: Estimated inhibition constant Ki VIM-2; for logIC50 VIM-2: log of IC50, ± SEM of logIC50; for IC50: purified enzyme 1 nM, nitrocefin 15 μM, pH 7.2, 25 °C
Experimental: as §1

[4] = MTT cytotoxicity assay; format: cell-based; settings: human, HepG2 cells
Experimental: Cytotoxic activity of the compounds was measured through the MTT colorimetric assay as previously described[60] using the Colorimetric (MTT) Kit for Cell Survival and Proliferation (Merck/Millipore; Darmstadt, Germany). HepG2 cells (human hepatocellular carcinoma cell line) were kept in penicillin/streptomycin-free medium overnight and then they were treated with the compounds for 24 h. Subsequently, the MTT reagent was added to the cells and after 3 h of incubation, MTT-derived formazan crystals were solubilized in acidified isopropanol (0.1 mL isopropanol with 0.04 N HCl). Absorbance was measured with multiscan spectrophotometer (Thermo Fisher Scientific) at 530 nm test and 630 nm reference wavelengths. Cell viability was expressed as the percentage of viable, untreated cells. CC50 values were determined with GraphPad Prism software (v9.3.1) and adjusted to dose-response curves by non-linear regression (Supplementary Table S7).
8. Cytotoxocity against HepG2 cells
Table S7. CC50 values and viability curves of metallo-β-lactamase inhibitors tested on HepG2 […]
cells. […]
range. Data are shown as % via bility values ± SEM (n=4). Calculations were done using […]
Inhibitors CC50 (μM) HepG2 […]

[5] = target: T3, 15N-labelled VIM-2 (Escherichia coli, UniProt Q5U7L7); test: 1H,15N-HSQC titration of VIM-2; format: binding; settings: 10 equivalents of compound, 600 MHz, pH 7.0, 25 °C
T3 construct: made in house
Experimental: (§2) The ^1H, ^15N-HSQC spectra for the titration experiments were recorded on a Bruker Avance Neo 600 MHz spectrometer equipped with a 5 mm TCI cryogenic probe at 25 °C. The U-[^15N]-labeled VIM-2 was prepared in a buffer of 20 mM KPO4, 0.1 mM ZnCl2, at pH 7.0, containing 85% H2O/15% D2O at a concentration of 0.25 mM. The U-[^15N]-labeled NDM-1 was used in a buffer of 20 mM HEPES, 0.1 mM ZnCl2, at pH 7.0, containing 85% H2O/15% D2O at a concentration of 0.25 mM. The ligands 5d, 5g, 5i, 5j (for VIM-2 titrations) and 5 f (for NDM-1 titration) were dissolved in the same buffer as the corresponding enzymes. Spectra were recorded using solvent suppression, 1024 points in f1, 16 transients, 512 increments in f2 and a relaxation delay of 0.2 s. The titrations were carried out with 0, 0.25, 0.50, 1.00, 1.50, 2.25, 3.00, 4.00, 5.00, 7.00, 10.0 equivalents of the inhibitors.
Figure S47. Superimposition of the 1H,15N-HSQC spectrum (600 MHz, pH 7.0, 25 °C) of
VIM-2 in the absence (blue) and in the presence (green) of 10 molar equivalent of compound
5j. Buffer: 20 mM KPO4, 0.1 mM ZnCl2, with 15% D2O.
(§3) Chemical shift perturbation values (CSP, ΔδNH) were calculated as the weighted average of
(§4) the chemical shift changes in f1 (ΔδN) and f2 (ΔδH) dimensions using the following equation 8:
∆δ = √∆δ 2 + ( N ); R = 6.5
Figure S48. Linear regression of the chemical shift perturbations of compound 5g (IC50 =
12 μM) as a function of the chemical shift perturbations of compounds 5c (yellow circle), 5d
(grey square), 5i (green triangle) and 5j (blue circle) for VIM-2. The data of the studied […]

[6] = target: T4, GIM-1 (Pseudomonas aeruginosa, UniProt Q704V1); test: Enzymatic metallo-β-lactamase assay on purified GIM-1; format: biochemical; settings: approximated from Dixon plots (1/v vs [I]) at one constant substrate concentration; ± SE; read-out: Estimated inhibition constant Ki GIM-1
[7] = Long term stability in buffer with 2.5% DMSO (LC-MS); format: physicochemical; settings: 20 mM KPO4, 0.1 mM ZnCl2, pH 7.0 + 2.5% DMSO; LC-MS 254 nm
Source text: Reagents, reactants, solvents and drying agents for synthesis, work-up and purification were purchased from commercial vendors (Sigma-Aldrich, VWR, Merck, Fluorochem, Thermo Fisher Scientific, Solveco), and if not stated otherwise they were used without further purification. Reactions and long term stability of the final compounds in buffer were monitored using LC-MS (Agilent 1260 Infinity II) equipped with an ESI-Q detector (Infinitylab LC-MSD) using Agilent InfinityLab Poroshell 120 C18 columns (2.7 μm, ϕ 2.1 mm L 50 mm or 2.7 μm, ϕ 4.6 mm L 50 mm). The intermediates were purified using VWR silica gel 60 (40–63 μm) with a Biotage Isolera One flash column chromatography instrument. The final products were purified with preparative RP-HPLC (VWR LaPrep P110) with single wavelength detection (254 nm), using a Kinetex C8 column (5 μm, 100 Å, ϕ 21.2 mm L 250 mm) and gradients of CH3CN/H2O + 0.1% formic acid as the mobile phase at a 10 mL/min flow rate. Analytical HPLC data were acquired on a VWR LaChrome ELITE system using an ACE3 C8 (3 μm, 300 Å, ϕ 3.0 mm L 100 mm) or a Kinetex C18 columns (5 μm, 100 Å, ϕ 3.0 mm L 150 mm). NMR spectra were recorded on a Varian Agilent MR400-DD2 400 MHz spectrometer equipped with a OneNMR probe, Bruker Avance Neo 500 MHz spectrometer equipped with a cryogenic TXO probe, or a Bruker Avance Neo 600 MHz spectrometer equipped with a TCI cryogenic probe. The chemical shifts are reported using the residual solvent signal as an indirect reference to TMS.
4. Long term stability of the final compounds in buffer with 2.5% DMSO
The long term stability of the final compounds in buffer (20 mM KPO4, 0.1 mM ZnCl2, pH 7.0 + 2.5% DMSO) were monitored using LC-MS (Agilent 1260 Infinity II) equipped with an ESI-Q detector (Infinitylab LC-MSD) using Agilent InfinityLab Poroshell 120 C18 column (2.7 μm, ϕ 4.6 mm L 50 mm) at 254 nm with a 7 min long gradient method (5% to 95% CH3CN) of CH3CN/H2O + 0.1% formic acid as the mobile phase at a 1.0 mL/min flow rate. The samples were measured right after dissolving them in buffer, and after 1 month of keeping the same samples dissolved in the same buffer. The main peaks (> 95%) and impurities with > 1% are […]
Figure S14. Compound 5a right after dissolving it in buffer.
Figure S15. Compound 5a kept in buffer for 1 month. […]

[8] = target: T4, GIM-1; test: Enzymatic metallo-β-lactamase assay on purified GIM-1; format: biochemical; settings: for logIC50 GIM-1: log of IC50, ± SEM of logIC50; for IC50: purified enzyme 1 nM, nitrocefin 2 μM, pH 7.2, 25 °C
Experimental: as §1

[9] = read-out: Kd, affinity to zinc ions; cited from earlier work
[10] = target: T2, NDM-1; settings: read-out: IC50 against NDM-1; cited from earlier work
[11] = target: T5, 15N-labeled NDM-1 (Klebsiella pneumoniae, UniProt C7C422); test: 1H,15N-HSQC titration of NDM-1; format: binding; settings: 10 equivalents of compound, 600 MHz, pH 7.0, 25 °C
T5 construct: made in house
Experimental: as §2, with “inhibitors. […]” for “inhibitors.”
as §3, §4
∆δ = √∆δ 2 + ( N ); R = 6.5 […]

[12] = HepG2, MTT, read-out: CC50 (in viability curve)
[13] = MTT, 0.0025 mM - 1mM concentration range, read-out: Cytotoxicity CC50 HepG2

T2 sequence (C7C422 29-270, looked up, species assumed): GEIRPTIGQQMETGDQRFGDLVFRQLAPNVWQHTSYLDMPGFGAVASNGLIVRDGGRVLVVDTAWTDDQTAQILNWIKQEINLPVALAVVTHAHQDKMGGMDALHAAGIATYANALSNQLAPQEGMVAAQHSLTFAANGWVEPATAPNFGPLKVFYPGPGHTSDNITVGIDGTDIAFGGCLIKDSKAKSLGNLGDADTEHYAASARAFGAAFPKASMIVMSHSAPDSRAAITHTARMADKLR
T4 sequence (Q704V1 entry or part of it): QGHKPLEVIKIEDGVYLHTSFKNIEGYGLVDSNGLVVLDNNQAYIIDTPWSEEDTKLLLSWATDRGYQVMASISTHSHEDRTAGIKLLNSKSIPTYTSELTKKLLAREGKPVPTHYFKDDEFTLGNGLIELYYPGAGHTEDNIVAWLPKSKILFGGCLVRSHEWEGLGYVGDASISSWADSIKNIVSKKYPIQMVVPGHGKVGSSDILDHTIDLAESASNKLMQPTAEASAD
T5 sequence (C7C422 29-270, looked up): as the sequence (C7C422 29-270, looked up, species assumed) above

Mean chemical shift perturbation, NDM-1 [11] [ppm]	SMILES	IC50 ([1]; Table S8, ref 35 (SI), read-out: IC50 VIM-2) [µM]	IC50 ([1]; read-out: IC50 for VIM-2) [µM]	Ki [2] [µM]	logIC50 NDM-1 [2]	IC50 [2] [µM]	Ki [3] [µM]	logIC50 VIM-2 [3] [μM]	IC50 [3] [µM]	CC50 at 24 h [4, 12] [µM]	CC50 at 24 h [4, 13] [µM]	Mean chemical shift perturbation, VIM-2 [5] [ppm]	Ki [6] [µM]	main peak Area% kept in buffer for 1 month [7] [%]	main peak Area% right after dissolving in buffer [7] [%]	logIC50 GIM-1 [8] [μM]	IC50 [8] [µM]	Kd [9] [µM]	IC50 [10] [µM]	IC50 ([1]; read-out: IC50 against VIM-2) [µM]
–	NCCN[C@H]1CC[C@H](CC(=O)N[C@H]2Cc3cccc(C(=O)O)c3OB2O)CC1 [taniborbactam]	0.002	0.04	–	–	–	–	–	–	–	–	–	–	–	–	–	–	–	–	–
–	O=C(Cc1cccs1)NC(c1ccccc1O)P(=O)(O)O (centres unmarked) [5i]	–	–	1070 ± 360	1.94 ± 0.08 log10(IC50/μM)	87	76 ± 8	1.58 ± 0.08	38	1500	1490	0.04	348 ± 28	97.58	96.45	2.28 ± 0.52	189	–	–	–
–	O=C(O)CN(CC(=O)O)CP(=O)(O)O [N-(phosphonomethyl)-iminodiacetic acid]	–	–	–	–	–	–	–	–	–	–	–	–	–	–	–	–	0.056	0.91	0.68
0.05	O=C(NC(c1ccccc1O)P(=O)(O)O)c1csc2c1CCCC2 (centres unmarked) [5f]	–	–	128 ± 58	1.48 ± 0.03 log10(IC50/μM)	30	40 ± 2	1.68 ± 0.05	48	4800	4800	–	–	95.90	95.67	1.71 ± 0.10	52	–	–	–
